This note sets out measurements from ChEMBL document CHEMBL1138491, “An innovative method to study target protein-drug interactions by mass spectrometry” (J Med Chem, 2009).

The assay addresses T1, Peroxisome proliferator-activated receptor alpha (Homo sapiens, UniProt Q07869).
T1 sequence (Q07869 whole entry): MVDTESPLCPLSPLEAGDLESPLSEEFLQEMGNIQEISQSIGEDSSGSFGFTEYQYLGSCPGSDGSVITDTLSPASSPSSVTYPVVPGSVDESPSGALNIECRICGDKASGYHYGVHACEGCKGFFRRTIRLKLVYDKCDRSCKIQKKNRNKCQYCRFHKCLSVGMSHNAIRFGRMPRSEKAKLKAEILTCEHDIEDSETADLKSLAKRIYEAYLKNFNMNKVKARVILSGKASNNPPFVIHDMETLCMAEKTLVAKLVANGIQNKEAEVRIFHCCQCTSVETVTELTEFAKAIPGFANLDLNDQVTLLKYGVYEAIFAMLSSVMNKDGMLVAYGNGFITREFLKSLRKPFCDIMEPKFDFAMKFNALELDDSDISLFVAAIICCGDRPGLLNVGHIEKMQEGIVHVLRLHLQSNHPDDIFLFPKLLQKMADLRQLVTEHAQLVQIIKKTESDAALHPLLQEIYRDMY
Put plainly: Inhibition of PPARalpha receptor.

In general, IC50 refers to the concentration that gives 50% inhibition. Higher therefore signals a need for much substance.

Regarding `CCC(=O)NC[C@H](Cc1ccc(OCCc2nc(-c3ccccc3)oc2C)cc1)N/C(C)=C\C(=O)c1ccc(C(F)(F)F)cc1`, the midpoint of inhibition, the IC50, lay at 240 nM.
